From publication PMC9127252, “Synthesis of sulfur karrikin bioisosteres as potential neuroprotectives” (Beilstein Journal of Organic Chemistry, 2022)

How the values were obtained:
[1] = target: T1, AChE from Electrophorus electricus (Electrophorus electricus, UniProt O42275); experiment: biochemical; details: for AChE residual activity at 10 µM (% of untreated): 10 µM compound, t = 25 min, triplicates, mean ± SD; for inhibition at 10 µM: read-out: AChE inhibition at 10 µM screening concentration
T1 construct: purchased Sigma-Aldrich, Germany
Protocol: The compounds were further tested for their ability to inhibit AChE in vitro [24].
Acetylcholine esterase (AChE) assay
Determination of AChE activity was based on the original method by Ellman adapted for 384 well plate format. The plates were first pre-spotted with 20 nL of 10 mM DMSO solution of the compound with the use of ECHO 550® liquid handler (to reach 10 µM final concentration). Master mix solution was prepared alongside and kept on ice until dispensed in the wells. The mix consisted of 1.5 mM acetylthiocholine iodide (ATCI), 1.5 mM 5,5-dithiobis(2-nitrobenzoic acid) (DTNB) and 30 mU/mL AChE from Electrophorus electricus (Sigma-Aldrich, Germany) in 50 mM TRIS-Cl buffer, pH 7.5, containing 0.04% BSA, 50 mM NaCl and 10 mM MgCl2. 20 µL of the master mix was then dispensed into the wells of a transparent flat-bottom 384-well plate (Nunc). The microplate was briefly but vigorously mixed on an orbital shaker and placed into a Tecan SPARK microplate reader where the absorbance at 405 nm was continuously monitored for 25 min (linear range). In parallel, the no-enzyme control reaction was run to exclude interference of the compounds with the assay. The background value was subtracted from the signal of the enzyme-containing wells. Enzyme inhibition was expressed as a signal percentage compared to an uninhibited reaction at t = 25 min: % residual activity = (A405 sample/A405 control) × 100. […]
were analysed with the use of Prism 9 (GraphPad Inc., San Diego, USA). The values were measured in triplicates, and the results are p resented as means ± SD. […]

[2] = test system: seed germination; set-up: method as in doi:10.1016/j.sajb.2013.12.003; details: compared with KAR1; cited from earlier work
[3] = test system: MAO-B; set-up: method as in PMID 31014820; details: cited from earlier work
[4] = test system: AChE; set-up: method as in PMID 31014820; details: cited from earlier work; for inhibition effects on AChE: in words

T1 sequence (O42275 24-633): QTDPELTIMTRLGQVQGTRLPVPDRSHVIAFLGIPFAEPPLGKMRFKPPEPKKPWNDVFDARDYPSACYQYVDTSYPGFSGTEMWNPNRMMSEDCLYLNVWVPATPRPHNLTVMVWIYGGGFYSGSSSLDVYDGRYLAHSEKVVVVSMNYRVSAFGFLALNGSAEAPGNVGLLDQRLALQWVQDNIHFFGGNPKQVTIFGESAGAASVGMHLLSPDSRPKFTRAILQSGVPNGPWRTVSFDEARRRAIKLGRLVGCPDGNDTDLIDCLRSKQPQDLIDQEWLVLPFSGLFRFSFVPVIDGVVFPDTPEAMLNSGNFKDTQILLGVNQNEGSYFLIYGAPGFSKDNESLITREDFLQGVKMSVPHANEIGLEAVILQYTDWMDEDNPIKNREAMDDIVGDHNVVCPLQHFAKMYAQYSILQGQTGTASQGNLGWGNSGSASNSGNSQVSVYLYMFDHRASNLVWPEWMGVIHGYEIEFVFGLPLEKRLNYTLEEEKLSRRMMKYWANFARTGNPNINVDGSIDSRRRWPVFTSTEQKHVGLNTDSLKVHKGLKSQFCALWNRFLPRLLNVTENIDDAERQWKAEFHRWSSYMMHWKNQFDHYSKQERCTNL

Structure (SMILES)	AChE residual activity at 10 µM (% of untreated) [1]	further results
Cc1c2ccscc-2oc1=S [Compound 27]	97 ± 5 % of untreated	
Cc1occc2c(C)c(=S)oc1-2 [Compound 12]	91 ± 2 % of untreated	
Cc1c2ccscc-2oc1=O [Compound 8, 3-methyl-2H-thiopyrano[3,4-b]furan-2-one]		germination activity [2]: lower germination activity than KAR1; IC50 [3]: 30 nM; IC50 [4]: 80 ± 6 nM; inhibition effects on AChE [4]: submicromolar
Cc1c2ccocc-2oc1=S [Compound 9]	95 ± 8 % of untreated	
O=c1cc2ccscc-2o1 [Compound 26]	99 ± 0.4 % of untreated	
Cc1sccc2c(C)c(=O)oc1-2 [Compound 21]	91 ± 2 % of untreated	
Cc1cc2c(C)c(=O)oc-2cs1 [Compound 20]	90 ± 2 % of untreated	
S=c1cc2ccscc-2o1 [Compound 30]	92 ± 1 % of untreated	
Cc1cc2c(C)c(=S)oc-2co1 [Compound 11]	93 ± 3 % of untreated	
S=c1cc2ccocc-2o1 [Compound 10]	99 ± 3 % of untreated	
Cc1sccc2c(C)c(=S)oc1-2 [Compound 29]	86 ± 2 % of untreated	inhibition at 10 µM [1]: ~15%
Cc1cc2c(C)c(=S)oc-2cs1 [Compound 28]	85 ± 1 % of untreated	inhibition at 10 µM [1]: ~15%
Cc1cc2c(C)c(=O)oc-2co1 [Compound 3, reference compound]		IC50 [4]: 370 ± 20 nM; inhibition effects on AChE [4]: submicromolar
